In patent publication US5424394A, “Synthetic preparation of amylin and amylin analogues” (priority 1993, dated 1995):
Read-outs that look alike come from different tables or passages of the source. Ends that are not written are not given here.

System: isolated rat soleus muscle
Test: insulin-stimulated incorporation of labelled glucose into glycogen in isolated rat soleus muscle (soleus muscle assay)
Format: cell-based
Source text: According to the present invention, we have developed methods for the efficient synthesis of amylin and amylin analogs which result in peptides of high purity which are substantially free of deletion peptides and other contaminating peptides and which show reproducibly high biological activity as measured by assays of its ability to cause resistance to insulin in vitro by inhibiting insulin-stimulated incorporation of labelled glucose into glycogen in isolated rat soleus muscle.
The present invention also provides synthetic human amylin produced by solid phase peptide synthesis which has an EC50 of about 2.5 nanomoles/liter±0.3 log units or less according to an assay of insulin-stimulated incorporation of labelled glucose into glycogen in isolated rat soleus muscle. In an especially preferred aspect, such synthetic human amylin is substantially free of deletion and other contaminating peptides. […]

**Q.** Which results are given for “Human Amylin (KCNTATCATQRLANFLVHSSNNFGAILSSTNVGSNTY-NH2; cysteine pairing not given here; UniProt P10997 34-70, looked up) [37-amino acid peptide with internal disulfide bond and C-terminal amide, made by solid phase peptide synthesis]”?
**A.** EC50 (peptide at least about 95% pure after preparative RP-HPLC, read-out: EC50 as measured by soleus muscle assay): < 5 nM; EC50 (±0.3 log units, inhibition of insulin-stimulated glycogen synthesis, read-out: EC50 according to an assay of insulin-stimulated incorporation of labelled glucose into glycogen in isolated rat soleus muscle): ≤ 2.5 nM
